# Measurements taken from publication PMC10382584, “Macrocyclization of linear molecules by deep learning to facilitate macrocyclic drug candidates discovery” (Nature Communications, 2023).
# Values joined by “and” are separate entries in the source; they are usually repeats but may differ in a detail not shown here. Identical values can stand only once.
# Test system: DSS-induced colitis mice
# Experiment: In vivo efficacy study, DSS-induced colitis model
# Set-up: species or system male BALB/c mice
# Details: for DAI score (Fig. 6b) / Body weight (Fig. 6a): individual mice
# [1] = 3.5% DSS colitis mice, compound 3 5 mg/kg, Fedratinib 10 mg/kg
# [2] = 3.5% DSS colitis mice, compound 3 5 mg/kg, Fedratinib 10 mg/kg, intragastric, day 8 to day 14
# [3] = compound 3 5 mg/kg, Fedratinib 10 mg/kg
structure (smiles),measurement,setting,value
Cc1cnc2nc1Nc1cccc(c1)COCC=CCOCc1cc(ccc1OCCN1CCCC1)N2 [Compound 3],"histological scores (H&E, Ameho criteria)",[1],lower
same,body weight change,[2],alleviate the decrease of body weight
same,disease activity index (DAI) scores,[2],significantly decreased
same,ratio of colon weight to length,"3.5% DSS colitis mice, compound 3 5 mg/kg, Fedratinib 10 mg/kg, compared to the model group",decreased
same,DAI score (Fig. 6b),"Compound 3 5 mg/kg, day 0",0
same,Body weight (Fig. 6a),"Compound 3 5 mg/kg, day 0, 5 mg/kg",21.4 and 20.3 and 22.6 and 21.9 (2×) and 23.4 and 23.9 and 21.5
same,DAI score (Fig. 6b),"Compound 3 5 mg/kg, day 1, 5 mg/kg",0 (7×) and 1
same,Body weight (Fig. 6a),"Compound 3 5 mg/kg, day 1, 5 mg/kg, in g (unit assumed)",22.2 and 21 and 23.1 and 22.4 and 23.5 and 21.4 and 24.6 and 22.7
same,DAI score (Fig. 6b),"Compound 3 5 mg/kg, day 2, 5 mg/kg",2 and 0 (5×) and 1 (2×)
same,Body weight (Fig. 6a),"Compound 3 5 mg/kg, day 2, 5 mg/kg, in g (unit assumed)",21.8 and 22.8 and 22.4
same,DAI score (Fig. 6b),"Compound 3 5 mg/kg, day 3, 5 mg/kg",0 (5×) and 2 (3×)
same,DAI score (Fig. 6b),"Compound 3 5 mg/kg, day 4, 5 mg/kg",2 (4×) and 0 and 1 (2×) and 3
same,Body weight (Fig. 6a),"Compound 3 5 mg/kg, day 4, 5 mg/kg, in g (unit assumed)",23.2 and 19.6 and 22.9 and 22.3 and 22.4 and 22 and 21.1 and 22.5
same,DAI score (Fig. 6b),"Compound 3 5 mg/kg, day 5, 5 mg/kg",3 (2×) and 5 and 1 (3×) and 6 and 2
same,Body weight (Fig. 6a),"Compound 3 5 mg/kg, day 5, 5 mg/kg, in g (unit assumed)",23 and 19.1 and 22 and 19.4 and 20.5 and 20.9 and 20.6 and 21.4
same,DAI score (Fig. 6b),"Compound 3 5 mg/kg, day 6, 5 mg/kg",4 (2×) and 5 and 1 (2×) and 2 and 7 and 6
same,Body weight (Fig. 6a),"Compound 3 5 mg/kg, day 6, 5 mg/kg, in g (unit assumed)",22.2 and 18.3 and 21.8 and 20.1 and 18.5 and 18.4 and 20.2 and 21.3
same,DAI score (Fig. 6b),"Compound 3 5 mg/kg, day 7, 5 mg/kg",7 (3×) and 2 (2×) and 6 and 3 and 4
same,Body weight (Fig. 6a),"Compound 3 5 mg/kg, day 7, 5 mg/kg, in g (unit assumed)",20.9 and 16.9 and 20.5 and 19.8 and 16.7 and 16.5 and 20.1 and 19.7
same,DAI score (Fig. 6b),"Compound 3 5 mg/kg, day 8, 5 mg/kg",0 (3×) and 5 and 3 (2×) and 1 (2×)
same,Body weight (Fig. 6a),"Compound 3 5 mg/kg, day 8, 5 mg/kg, in g (unit assumed)",20.9 and 15.8 and 22.3 and 21.2 and 16.4 and 21.3 and 21.8
same,DAI score (Fig. 6b),"Compound 3 5 mg/kg, day 9, 5 mg/kg",1 and 0 (5×) and 2
same,Body weight (Fig. 6a),"Compound 3 5 mg/kg, day 9, 5 mg/kg, in g (unit assumed)",20.2 and 15.8 and 22.7 and 22.9 and 16.5 and 21.9 and 22
same,DAI score (Fig. 6b),"Compound 3 5 mg/kg, day 10, 5 mg/kg",1 (4×) and 2 (3×)
same,Body weight (Fig. 6a),"Compound 3 5 mg/kg, day 10, 5 mg/kg, in g (unit assumed)",19.5 and 15.3 and 22.2 and 22.8 and 16.1 and 21.9 and 22.6
same,DAI score (Fig. 6b),"Compound 3 5 mg/kg, day 11",0
same,Body weight (Fig. 6a),"Compound 3 5 mg/kg, day 11, 5 mg/kg",20.1 and 15.7 and 22 (2×) and 22.9 and 16.7 and 22.8
same,DAI score (Fig. 6b),"Compound 3 5 mg/kg, day 12, 5 mg/kg",0 (6×) and 1
same,Body weight (Fig. 6a),"Compound 3 5 mg/kg, day 12, 5 mg/kg, in g (unit assumed)",21 and 16.6 and 22.3 and 23 and 17.2 and 22.1 and 22.9
same,Body weight (Fig. 6a),"Compound 3 5 mg/kg, day 13, 5 mg/kg, in g (unit assumed)",21.7 and 17.7 and 21.8 and 23.1 and 18 and 22.3 and 22.6
same,Body weight (Fig. 6a),"Compound 3 5 mg/kg, day 14, 5 mg/kg",21.5 and 17.4 and 22.3 and 23.4 and 19.2 and 22.4 (2×)
same,HE staining score (Fig. 6d),"Compound 3 5 mg/kg, individual colon tissues (n = 7), 5 mg/kg",3 and 1 and 2
same,symptoms in DSS-induced murine colitis,[3],ameliorate the symptoms
Cc1cnc(Nc2ccc(OCCN3CCCC3)cc2)nc1Nc1cccc(S(=O)(=O)NC(C)(C)C)c1 [Fedratinib],"histological scores (H&E, Ameho criteria)",[1],lower
same,body weight change,[2],alleviate the decrease of body weight
same,DAI score (Fig. 6b),"Fedratinib 10 mg/kg, day 0",0
same,Body weight (Fig. 6a),"Fedratinib 10 mg/kg, day 0, in g (unit assumed)",22.2 and 22.7 and 23.9 and 22.6 and 19.9 and 23.6 and 20.6 and 23.1
same,DAI score (Fig. 6b),"Fedratinib 10 mg/kg, day 1",1 (4×) and 0 (4×)
same,Body weight (Fig. 6a),"Fedratinib 10 mg/kg, day 1, in g (unit assumed)",21.3 and 24.2 and 23.6 and 23.8 and 21.7 and 23.2 and 20.9 and 22
same,DAI score (Fig. 6b),"Fedratinib 10 mg/kg, day 2",0 (3×) and 1 (5×)
same,Body weight (Fig. 6a),"Fedratinib 10 mg/kg, day 2, in g (unit assumed)",22.6 and 23.8
same,DAI score (Fig. 6b),"Fedratinib 10 mg/kg, day 3",0 (5×) and 1 (3×)
same,Body weight (Fig. 6a),"Fedratinib 10 mg/kg, day 4",21.8 and 22.7 and 23.6 (2×) and 22.3 and 21.7 and 19.8 and 23.2
same,DAI score (Fig. 6b),"Fedratinib 10 mg/kg, day 4",1 (5×) and 3 (2×) and 0
same,DAI score (Fig. 6b),"Fedratinib 10 mg/kg, day 5",0 (3×) and 3 (2×) and 1 and 4 and 2
same,Body weight (Fig. 6a),"Fedratinib 10 mg/kg, day 5, in g (unit assumed)",22 and 21.8 and 23.1 and 21 and 21.9 and 23.6 and 18.9 and 22.7
same,DAI score (Fig. 6b),"Fedratinib 10 mg/kg, day 6",1 (4×) and 6 and 7 and 2 and 5
same,Body weight (Fig. 6a),"Fedratinib 10 mg/kg, day 6, in g (unit assumed)",22.1 and 20.1 and 22.6 and 19.3 and 21.5 and 23.6 and 17.1 and 20.5
same,Body weight (Fig. 6a),"Fedratinib 10 mg/kg, day 7",21.8 (2×) and 19 and 22.5 and 18.2 and 23.9 and 16 and 18.3
same,DAI score (Fig. 6b),"Fedratinib 10 mg/kg, day 7",2 (2×) and 7 (3×) and 0 and 3 and 6
same,DAI score (Fig. 6b),"Fedratinib 10 mg/kg, day 8",0 (5×) and 3 (2×) and 6
same,Body weight (Fig. 6a),"Fedratinib 10 mg/kg, day 8, in g (unit assumed)",22.3 and 18.8 and 23.8 and 18.6 and 21.7 and 24 and 15.6 and 17.2
same,DAI score (Fig. 6b),"Fedratinib 10 mg/kg, day 9",0 (5×) and 3 (2×) and 1
same,Body weight (Fig. 6a),"Fedratinib 10 mg/kg, day 9, in g (unit assumed)",22.3 and 19.4 and 23.7 and 19.1 and 19.3 and 24.2 and 15.3
same,DAI score (Fig. 6b),"Fedratinib 10 mg/kg, day 10",2 (2×) and 1 (3×) and 0 (2×)
same,Body weight (Fig. 6a),"Fedratinib 10 mg/kg, day 10, in g (unit assumed)",21.6 and 18.4 and 23.8 and 19.7 and 19 and 23.6 and 15.4
same,DAI score (Fig. 6b),"Fedratinib 10 mg/kg, day 11",0 (5×) and 1 and 2
same,Body weight (Fig. 6a),"Fedratinib 10 mg/kg, day 11, in g (unit assumed)",21.9 and 18.6 and 23.5 and 20.2 and 18.7 and 23.6 and 16
same,DAI score (Fig. 6b),"Fedratinib 10 mg/kg, day 12",0 (5×) and 1
same,Body weight (Fig. 6a),"Fedratinib 10 mg/kg, day 12, in g (unit assumed)",22.2 and 19.1 and 24.1 and 19.9 and 19.4 and 23.8 and 16
same,Body weight (Fig. 6a),"Fedratinib 10 mg/kg, day 13, in g (unit assumed)",21.9 and 19.8 and 24.2 and 20.4 and 20.1 and 24 and 16.1
same,Body weight (Fig. 6a),"Fedratinib 10 mg/kg, day 14, in g (unit assumed)",22.6 and 20.3 and 24.5 and 20.4 and 20.8 and 24.1 and 16.5
same,HE staining score (Fig. 6d),"Fedratinib 10 mg/kg, individual colon tissues (n = 5)",1 and 3 and 0
same,symptoms in DSS-induced murine colitis,[3],ameliorate the symptoms
